# Where two headings read alike, the source gives them in different places.
# What was measured:
# T. cruzi Tulahuen CL2 = assay: Anti-Chagas activity, T. cruzi on MRC-5 cells; format: cell-based; settings: amastigotes, MRC-5 host cells, 7 days; read-out: Trypanosoma cruzi IC50 (µM) ± SD
# Protocol: Anti-Chagas activity: T. cruzi Tulahuen CL2 (benznidazole-sensitive, LacZ-reporter strain) was maintained on MRC-5 cells in minimal essential medium (MEM) supplemented with […], 16.5 mM sodium hydrogen carbonate and 5% FCS. In the assay, 4 × 10^3 MRC-5 cells and 4 × 10^4 parasites were added to each well. After incubation at 37 °C for 7 days, parasite growth was assessed by adding the substrate chlorophenol red -D-galactopyranoside. The color reaction was read at 540 nm after 4 h and absorbance values were expressed as a percentage of the blank controls. Benznidazole was included as reference drug.
# [1] = tested on: adult female B. pahangi worms; assay: Adult in vitro Brugia pahangi motility assay (Worminator); format: cell-based; settings: for Inhibition of Motility (%) Day 1 / Inhibition of Motility (%) Day 2 / Inhibition of Motility (%) Day 3 / Inhibition of Motility (%) Day 6: female B. pahangi, n = 4 worms; for IC50: adult female Brugia pahangi, worminator motility assay, six-point serial dilution
# Protocol: Adult in vitro Brugia pahangi assay: Adult female B. pahangi worms were kindly provided by Dr. Brenda Beerntsen, University of Missouri, Columbia, MO. Individual female worms were assayed in 500 μL of culture medium (RPMI-1640 with 25 mM HEPES, 2.0 g/L NaHCO3, 5% heat-inactivated FBS and antibiotic/antimycotic solution) in 24-well plates. Worms treated with 1% DMSO served as negative control and there were four replicates per compound. Worms were maintained at 37 °C in a 5% CO2 incubator for the duration of the assay. Individual worm movement was assessed from day 1–6 using the Worminator [55], which reports worm motility as mean movement units (MMU), a measure of pixels displaced. MMUs are then used to calculate percent inhibition of worm motility compared to control worms.
# [2] = tested on: adult ex vivo S. mansoni worms; assay: Adult ex vivo Schistosoma worm killing assay; format: cell-based
# Protocol: Adult ex vivo Schistosoma assay: Mice (Swiss-Webster) were infected with S. mansoni by percutaneous exposure for 1 h to cercariae (NMRI strain) obtained from infected Biomphalaria glabrata snails. This study was approved by the Institutional Animal Care and Use Committee of Rush University Medical Center (17-053; Department of Health and Human Services animal welfare assurance number A-3120-01). Adult worms were isolated from infected mice as described and cultured in RPMI medium +10% fetal calf serum (FCS), 10 mM glutamine, 100 IU/mL penicillin and 100 µg/mL streptomycin for 24 h before compound addition. Compounds were dissolved in DMSO and added at the indicated concentrations. The culture media was replaced every day and fresh compounds added. Control worms were treated with DMSO alone. Worms were cultured for 5 days. […] Assays were done in triplicate with about 10 worms in each well. This study was approved by the Institutional Animal Care and Use Committee of Rush University Medical Center (17-053; Department of Health and Human Services animal welfare assurance number A-3120-01).
# [3] = tested on: T. b. gambiense (ITMAP/1893); assay: Anti-trypanosomal activity, T. b. gambiense trypomastigotes (resazurin); format: cell-based, Trypanosoma brucei gambiense; settings: 72 h, read-out: T. b. gambiense IC50 (µM) ± SD
# Protocol: (§1) Anti-trypanosomal activity: T. b. brucei Squib-427 strain (suramin-sensitive) and T. b. gambiense (ITMAP/1893) were cultured at 37 °C and 5% CO2 in HMI-9 medium supplemented with 10% FCS [90]. About 10^4 trypomastigotes/well were added to each well and parasite growth was assessed after 72 h at 37 °C by adding resazurin and reading at ex 550 nm, em 590 nm. Suramin was included as reference drug for T. b. brucei and pentamidine for T. b. gambiense.
# [4] = tested on: TBL3 cells (BL3 infected with T. annulata); assay: Proliferation test on Theileria annulata-infected cells (TBL3); format: cell-based, bovine / Theileria annulata; settings: 0.5 μM
# Protocol: Theileria annulata culture: The TBL3 cell line was derived by in vitro infection of the spontaneous bovine B-lymphosarcoma cell line BL3 with the Hissar stock of T. annulata. B cell characteristics of the lines have been described. The cells are maintained at 37 °C under 5% CO2, in RPMI medium supplemented with 10% FCS, 25 mM Hepes, 4 mM L-glutamine, 100 μg/mL of streptomycin, 100 IU/mL of penicillin and […] 2-mercapthoethanol.
# Cells were cultured in 12-well plates at an initial density of 200,000 cells per well in duplicate for each condition. […] The cells were cultured in 12-well plates at an initial density of 200,000 cells per well and drug was added every 24 h. To be able to compare the results, a drug-free control was also performed. Cell counting was done at 24, 72 and 96 h using the trypan blue method.
# [5] = tested on: primary mouse macrophages (PMM); assay: in vitro
# Protocol: Toxicity in human fetal lung fibroblast (MRC-5) cell line and primary mouse macrophages (PMM) was assessed using a previously reported assay in 96-well microtiter plates. Tamoxifen and miltefosine were included as reference drugs (Table 10).
# For MRC5SV2 or PMM cells, the assays were performed in 96-well microtiter plates, each well containing 10 µL of compound dilution and 190 µL of cell inoculum (3 × 10^4 cells/mL) as reported. Cell growth was compared to untreated controls (100% growth) and assay-media controls (0% growth). After three-day incubation, cell viability was assessed fluorometrically by adding resazurin [50 µL/well of a stock solution in phosphate buffer (50 µg/mL)], incubating for 4 h and measuring fluorescence (ex 550 nm, em 590 nm). The results are expressed as percentage reduction in cell growth as compared to untreated control wells. […] Tamoxifen was included as the reference drug.
# [6] = tested on: T. b. brucei Squib-427 strain; assay: Anti-trypanosomal activity, T. b. brucei trypomastigotes (resazurin); format: cell-based, Trypanosoma brucei brucei; settings: 72 h
# Protocol: as §1
structure (smiles),measurement,setting,value
"CC(=O)OCC1OC([S][Au][PH]2(c3ccccc3)C(c3ccccn3)=CC=C2c2ccccn2)C(OC(C)=O)C(OC(C)=O)C1OC(C)=O [GoPI-sugar, 1-thio-β-D-glucopyranose 2,3,4,6-tetraacetato-S-Au{1-phenyl-2,5-di(2-pyridyl)phosphole}]",IC50,T. cruzi Tulahuen CL2,0.56 ± 0.11 µM
same,Inhibition of Motility (%) Day 1,[1]; 1 μM,20%
same,Inhibition of Motility (%) Day 2,[1]; 1 μM,16%
same,Inhibition of Motility (%) Day 3,[1]; 1 μM,22%
same,Inhibition of Motility (%) Day 6,[1]; 1 μM,48%
same,Inhibition of Motility (%) Day 1,[1]; 3 μM,24%
same,Inhibition of Motility (%) Day 2,[1]; 3 μM,41%
same,Inhibition of Motility (%) Day 3,[1]; 3 μM,40%
same,Inhibition of Motility (%) Day 6,[1]; 3 μM,96%
same,Inhibition of Motility (%) Day 1,[1]; 10 μM,91%
same,Inhibition of Motility (%) Day 2,[1]; 10 μM,98%
same,Inhibition of Motility (%) Day 3,[1]; 10 μM,100%
same,Inhibition of Motility (%) Day 6,[1]; 10 μM,99%
same,IC50,[1]; read-out: IC50 (µM) Day 2,2.8 µM
same,IC50,[1]; read-out: IC50 (µM) Day 3,3.9 µM
same,IC50,[1]; read-out: IC50 (µM) Day 6,1.7 µM
same,Dead (%) Day 1,[2]; 1 μM,0%
same,Dead (%) Day 2,[2]; 1 μM,0%
same,Dead (%) Day 3,[2]; 1 μM,0%
same,Dead (%) Day 4,[2]; 1 μM,0%
same,Dead (%) Day 5,[2]; 1 μM,0%
same,Dead (%) Day 1,[2]; 5 μM,100%
same,Dead (%) Day 1,[2]; 10 μM,100%
same,IC50,[3],1.11 ± 0.12 µM
same,time at which the antiproliferative effect occurred,[4]; TBL3 cells,24 h
same,number of TBL3 cells per well,"[4]; first 24 h, initial density 200,000 cells per well","200,000 cells per well"
same,CC50,[5],8000 nM
same,IC50,[6],1830 nM
